Test results reported in patent US9995734B2, “Human T cell line assay for evaluating the immunologic identity of glatiramer acetate preparations” (Mylan Inc., priority 2013, dated 2018).
“And” between values parts separate entries of the source, which are not always exact repeats. Identical values can stand only once.

System: Donor 3 GMA T-Cell Lines
Experiment: ATP proliferation assay (CellTiter Glo), Donor 3 GMA T-cell lines, incl. reactivity to non-canonical GA peptides
Assay type: cell-based, human
Conditions: for proliferation response to non-canonical GA peptides: 0, 1, 3, 10, 30 μg/mL; for Non-Canonical Peptide Non-Reactivity: proliferation <2 times no antigen control; for Non-Canonical Peptide Reactivity: at least one proliferation value >=2 times no antigen control

Q: Which results are given for poly (Glu-Ala-Tyr; 6:3:1) [GAT 631]?
A: proliferation response to non-canonical GA peptides (165-B5G and 165-E7G, Day 81): responded; Non-Canonical Peptide Non-Reactivity (165-B5G): GAT 631; Non-Canonical Peptide Non-Reactivity (165-C5G): GAT 631; Non-Canonical Peptide Reactivity (165-E7G): GAT 631; Non-Canonical Peptide Non-Reactivity (165-E9G): GAT 631; Non-Canonical Peptide Non-Reactivity (165-F5G): GAT 631; Non-Canonical Peptide Non-Reactivity (165-F10G): GAT 631; proliferation response to non-canonical GA peptides (165-H11G, Day 50): responded; Non-Canonical Peptide Reactivity (165-H11G): GAT 631; Reactive T-Cell Line (Donor 3 GMA lines, at least a 50% increase in proliferation relative to a control after stimulation with the non-canonical GA peptide): 165-H11G (Donor 3); Nonreactive T-Cell Line (Donor 3 GMA lines, stimulation with the non-canonical GA peptide): 165-B5G (Donor 3) and 165-C5G (Donor 3) and 165-C8G (Donor 3) and 165-E7G (Donor 3) and 165-E9G (Donor 3) and 165-F5G (Donor 3) and 165-F10G (Donor 3); Proliferation (luminescent ATP assay), Mean (T-cell line 165-05G, 1 μg/mL antigen, Day 50 of culturing, No Antigen Value 2149): 2004 RLU; Proliferation (luminescent ATP assay), Mean (T-cell line 165-05G, 3 μg/mL antigen, Day 50 of culturing, No Antigen Value 2149): 2207 RLU; Proliferation (luminescent ATP assay), Mean (T-cell line 165-05G, 10 μg/mL antigen, Day 50 of culturing, No Antigen Value 2149): 1928 RLU; Proliferation (luminescent ATP assay), Mean (T-cell line 165-05G, 30 μg/mL antigen, Day 50 of culturing, No Antigen Value 2149): 1829 RLU; Proliferation (luminescent ATP assay), Mean (T-cell line 165-B5G, 1 μg/mL antigen, Day 81 of culturing, No Antigen Value 2432): 4666 RLU; Proliferation (luminescent ATP assay), Mean (T-cell line 165-B5G, 1.25 μg/mL antigen, Day 55 of culturing, No Antigen Value 846): 1133 RLU; Proliferation (luminescent ATP assay), Mean (T-cell line 165-B5G, 2.5 μg/mL antigen, Day 55 of culturing, No Antigen Value 846): 1288 RLU; Proliferation (luminescent ATP assay), Mean (T-cell line 165-B5G, 3 μg/mL antigen, Day 81 of culturing, No Antigen Value 2432): 5536 RLU; Proliferation (luminescent ATP assay), Mean (T-cell line 165-B5G, 5 μg/mL antigen, Day 55 of culturing, No Antigen Value 846): 1511 RLU; Proliferation (luminescent ATP assay), Mean (T-cell line 165-B5G, 10 μg/mL antigen, Day 55 of culturing, No Antigen Value 846): 1645 RLU; Proliferation (luminescent ATP assay), Mean (T-cell line 165-B5G, 10 μg/mL antigen, Day 81 of culturing, No Antigen Value 2432): 4997 RLU; Proliferation (luminescent ATP assay), Mean (T-cell line 165-B5G, 30 μg/mL antigen, Day 81 of culturing, No Antigen Value 2432): 3637 RLU; Proliferation (luminescent ATP assay), Mean (T-cell line 165-C5G, 1.25 μg/mL antigen, autologous B-LCL): 435 RLU; Proliferation (luminescent ATP assay), Mean (T-cell line 165-C5G, 2.5 μg/mL antigen, autologous B-LCL): 465 RLU; Proliferation (luminescent ATP assay), Mean (T-cell line 165-C5G, 5 μg/mL antigen, autologous B-LCL): 504 RLU; Proliferation (luminescent ATP assay), Mean (T-cell line 165-C5G, 10 μg/mL antigen, autologous B-LCL): 423 RLU; Proliferation (luminescent ATP assay), Mean (T-cell line 165-E7G, 1 μg/mL antigen, Day 81 of culturing, No Antigen Value 2145): 4043 RLU; Proliferation (luminescent ATP assay), Mean (T-cell line 165-E7G, 1.25 μg/mL antigen, autologous B-LCL, Day 55): 2629 RLU; Proliferation (luminescent ATP assay), Mean (T-cell line 165-E7G, 2.5 μg/mL antigen, autologous B-LCL, Day 55): 2827 RLU; Proliferation (luminescent ATP assay), Mean (T-cell line 165-E7G, 3 μg/mL antigen, Day 81 of culturing, No Antigen Value 2145): 6457 RLU; Proliferation (luminescent ATP assay), Mean (T-cell line 165-E7G, 5 μg/mL antigen, autologous B-LCL, Day 55): 2950 RLU; Proliferation (luminescent ATP assay), Mean (T-cell line 165-E7G, 10 μg/mL antigen, Day 81 of culturing, No Antigen Value 2145): 5499 RLU; Proliferation (luminescent ATP assay), Mean (T-cell line 165-E7G, 10 μg/mL antigen, autologous B-LCL, Day 55): 3877 RLU; Proliferation (luminescent ATP assay), Mean (T-cell line 165-E7G, 30 μg/mL antigen, Day 81 of culturing, No Antigen Value 2145): 4178 RLU; Proliferation (luminescent ATP assay), Mean (T-cell line 165-E9G, 1 μg/mL antigen, Day 50 of culturing, No Antigen Value 1742): 1482 RLU; Proliferation (luminescent ATP assay), Mean (T-cell line 165-E9G, 1.25 μg/mL antigen, autologous B-LCL): 122 RLU; Proliferation (luminescent ATP assay), Mean (T-cell line 165-E9G, 2.5 μg/mL antigen, autologous B-LCL): 175 RLU; Proliferation (luminescent ATP assay), Mean (T-cell line 165-E9G, 3 μg/mL antigen, Day 50 of culturing, No Antigen Value 1742): 1593 RLU; Proliferation (luminescent ATP assay), Mean (T-cell line 165-E9G, 5 μg/mL antigen, autologous B-LCL): 207 RLU; Proliferation (luminescent ATP assay), Mean (T-cell line 165-E9G, 10 μg/mL antigen, autologous B-LCL): 179 RLU; Proliferation (luminescent ATP assay), Mean (T-cell line 165-E9G, 30 μg/mL antigen, Day 50 of culturing, No Antigen Value 1742): 1382 RLU; Proliferation (luminescent ATP assay), Mean (T-cell line 165-E9G, 10 μpg/mL antigen, Day 50 of culturing, No Antigen Value 1742): 1454 RLU; Proliferation (luminescent ATP assay), Mean (T-cell line 165-F5G, 1.25 μg/mL antigen, autologous B-LCL): 118 RLU; Proliferation (luminescent ATP assay), Mean (T-cell line 165-F5G, 2.5 μg/mL antigen, autologous B-LCL): 160 RLU; Proliferation (luminescent ATP assay), Mean (T-cell line 165-F5G, 5 μg/mL antigen, autologous B-LCL): 106 RLU; Proliferation (luminescent ATP assay), Mean (T-cell line 165-F5G, 10 μg/mL antigen, autologous B-LCL): 130 RLU; Proliferation (luminescent ATP assay), Mean (T-cell line 165-F10G, 1 μg/mL antigen, Day 50 of culturing, No Antigen Value 3752): 3755 RLU; Proliferation (luminescent ATP assay), Mean (T-cell line 165-F10G, 1.25 μg/mL antigen, autologous B-LCL): 948 RLU; Proliferation (luminescent ATP assay), Mean (T-cell line 165-F10G, 2.5 μg/mL antigen, autologous B-LCL): 1080 RLU; Proliferation (luminescent ATP assay), Mean (T-cell line 165-F10G, 3 μg/mL antigen, Day 50 of culturing, No Antigen Value 3752): 3543 RLU; Proliferation (luminescent ATP assay), Mean (T-cell line 165-F10G, 5 μg/mL antigen, autologous B-LCL): 1024 RLU; Proliferation (luminescent ATP assay), Mean (T-cell line 165-F10G, 10 μg/mL antigen, Day 50 of culturing, No Antigen Value 3752): 3702 RLU; Proliferation (luminescent ATP assay), Mean (T-cell line 165-F10G, 10 μg/mL antigen, autologous B-LCL): 944 RLU
